Laboratory results reported in patent publication US20080241904A1, “PROCESS FOR PRODUCING ISOMALTOSE AND USES THEREOF” (KABUSHIKI KAISHA HAYASHIBARA SEIBUTSU KAGAKU KENKYUJO, priority 2001, published 2008).

Experiments:
[1] = system: α-isomaltosylglucosaccharide-forming enzyme; test: Influence of metal ions on activity of α-isomaltosylglucosaccharide-forming enzyme (Strain C9); type: biochemical, Bacillus globisporus C9; settings: for Relative activity: in the presence of 1 mM of each metal ion, None = 100; for Effect on enzyme activity (in words): 1 mM, summary of Table 2
Procedure: The activities of these enzymes were assayed as follows: The α-isomaltosylglucosaccharide-forming enzyme of the present invention was assayed for enzymatic activity by dissolving maltotriose in 100 mM acetate buffer (pH 6.0) to give a concentration of 2% (w/v) for a substrate solution, adding a 0.5 ml of an enzyme solution to a 0.5 ml of the substrate solution, enzymatically reacting the mixture solution at 35° C. for 60 min, suspending the reaction mixture by heating at 100° C. for 10 min, and quantifying maltose, among the isomaltosyl maltose and maltose formed in the reaction mixture, by high-performance liquid chromatography (abbreviated as “HPLC” hereinafter). HPLC was carried out using “YMC PACK ODS-AQ303 column” commercialized by YMC Co., Ltd., Tokyo, Japan, at a column temperature of 40° C. and a flow rate of 0.5 ml/min of water; and using “RI-8012”, a differential refractometer commercialized by Tosoh Corporation, Tokyo, Japan. One unit activity of the α-isomaltosylglucosaccharide-forming enzyme is defined as the enzyme amount that forms one micromole of maltose per minute under the above enzymatic reaction conditions.
The influence of metal ions on the activity of α-isomaltosylglucosaccharide-forming enzyme was examined in the presence of 1 mM of each metal-ion according to the assay for the enzyme activity.

[2] = system: α-isomaltosyl-transferring enzyme; test: Influence of metal ions on activity of α-isomaltosyl-transferring enzyme (Strain C9); type: biochemical, Bacillus globisporus C9; settings: for Relative activity: in the presence of 1 mM of each metal ion, None = 100; for Effect on enzyme activity (in words): 1 mM, summary of Table 4
Procedure: (§1) The α-isomaltosyl-transferring enzyme was assayed for enzymatic activity by dissolving panose in 100 mM acetate buffer (pH 6.0) to give a concentration of 2% (w/v) for a substrate solution, adding a 0.5 ml of an enzyme solution to 0.5 ml of the substrate solution, enzymatically reacting the mixture solution at 35° C. for 30 min, suspending the reaction mixture by boiling for 10 min, and quantifying glucose, among the cyclotetrasaccharide and glucose formed in the reaction mixture, by the glucose oxidase method. One unit activity of the α-isomaltosyl-transferring enzyme is defined as the enzyme amount that forms one micromole of glucose per minute under the above enzymatic reaction conditions.
(§2) The influence of metal ions on the activity of α-isomaltosyl-transferring enzyme was examined in the presence of 1 mM of each metal-ion according to the assay for the enzyme activity.

[3] = system: α-isomaltosylglucosaccharide-forming enzyme; test: Influence of metal ions on enzyme activity, Experiment 4-2 (Strain C11); type: biochemical, Bacillus globisporus C11; settings: for Relative activity: in the presence of 1 mM of each metal ion, None = 100; for Effect on enzyme activity (in words): 1 mM, summary of Table 6
[4] = system: α-isomaltosyl-transferring enzyme; test: Influence of metal ions on activity of α-isomaltosyl-transferring enzyme (Strain C11); type: biochemical, Bacillus globisporus C11; settings: for Relative activity: in the presence of 1 mM of each metal ion, None = 100; for Effect on enzyme activity (in words): 1 mM, summary of Table 8
Procedure: as §1, §2

[5] = system: α-isomaltosylglucosaccharide-forming enzyme from Bacillus globisporus C9; test: Action of α-isomaltosylglucosaccharide-forming enzyme on saccharides as substrates (TLC), enzyme of Strain C9; type: biochemical; set-up: key: −: it showed no change; +: it showed a slight reduction of the color of substrate spot and the formation of other reaction product; ++: it showed a high reduction of the color of substrate spot and the formation of other reaction product; +++: it showed a substantial disappearance of the color of substrate spot and the formation of other reaction product; settings: two units/g substrate, substrate 2% (w/v), 30° C., pH 6.0, 24 hours
Procedure: (§3) The action of α-isomaltosylglucosaccharide-forming enzyme on saccharides as substrates was tested. First, a solution of maltose, maltotriose, maltotetraose, maltopentaose, maltohexaose, maltoheptaose, isomaltose, isomaltotriose, panose, isopanose, α,α-trehalose (may be abbreviated as “trehalose” hereinafter), kojibiose, nigerose, neotrehalose, cellobiose, gentibiose, maltitol, maltotriitol, lactose, sucrose, erlose, selaginose, maltosyl glucoside, or isomaltosyl glucoside was prepared. To each of the above solutions was added two units/g substrate of the purified specimen of α-isomaltosylglucosaccharide-forming enzyme from Bacillus globisporus C9 in Experiment 2-1 or Bacillus globisporus C11 in Experiment 4-1, and each resulting solution was adjusted to give a substrate concentration of 2% (w/v) and incubated at 30° C. and pH 6.0 for 24 hours. The solutions before and after the enzymatic reactions were respectively subjected to thin-layer chromatography (abbreviated as “TLC” hereinafter). TLC was carried out in such a manner of separating saccharides by developing the solutions twice each using, as a developer, a mixture solution of n-butanol, pyridine, and water (=6:4:1), and, as a thin-layer plate, “[…] 60”, an aluminum plate (20×20 cm) for TLC commercialized by Merck & Co., Inc., Rahway, USA.; detecting the total saccharides in each mixture solution by spraying a mixture of sulfuric acid and methanol onto the aluminum plates to develop color of the total saccharides and detecting non-reducing saccharides in each mixture solution by the diphenylamine-aniline method.

[6] = system: α-isomaltosylglucosaccharide-forming enzyme from Bacillus globisporus C11; test: Action of α-isomaltosylglucosaccharide-forming enzyme on saccharides as substrates (TLC), enzyme of Strain C11; type: biochemical; set-up: key: −: it showed no change; +: it showed a slight reduction of the color of substrate spot and the formation of other reaction product; ++: it showed a high reduction of the color of substrate spot and the formation of other reaction product; +++: it showed a substantial disappearance of the color of substrate spot and the formation of other reaction product; settings: two units/g substrate, substrate 2% (w/v), 30° C., pH 6.0, 24 hours
Procedure: as §3

[7] = system: α-isomaltosylglucosaccharide-forming enzyme from Bacillus globisporus C9 strain; test: Specificity of saccharide transferring reaction acceptor, enzyme of Strain C9; type: biochemical; settings: 1.6% acceptor, 4% PINE-DEX #100 as donor, one unit/g donor, 30° C., pH 6.0, 24 hours; GLC or HPLC
Procedure: (§4) Using different saccharides, it was tested whether the saccharides were used as saccharide transferring reaction acceptors for the α-isomaltosylglucosaccharide-forming enzyme. A 1.6% solution, as a solution of saccharide transferring reaction acceptor, of D-glucose, D-xylose, L-xylose, D-galactose, D-fructose, D-mannose, D-arabinose, D-fucose, L-sorbose, L-rhamnose, methyl-α-glucopyranoside (methyl-α-glucose), methyl-β-glucopyranoside ([…]), N-acetyl-glucosamine, sorbitol, α,α-trehalose, isomaltose, isomaltotriose, cellobiose, gentibiose, maltitol, lactose, sucrose, α-cyclodextrin, β-cyclodextrin, or γ-cyclodextrin, was prepared. To each solution with a saccharide concentration was added “PINE-DEX #100”, a partial starch hydrolysate, as a saccharide donor, to give a concentration of 4%, and admixed with one unit/g saccharide donor, d.s.b., of either of purified specimens of α-isomaltosylglucosaccharide-forming enzyme from Bacillus globisporus C9 strain obtained by the method in Experiment 2-1, Bacillus globisporus C11 strain obtained by the method in Experiment 4-1. The resulting mixture solutions were incubated at 30° C. and pH 6.0 except that the enzyme from Arthrobacter globiformis A19 strain was incubated at pH 8.4 for 24 hours. The reaction mixtures of the post-enzymatic reactions were analyzed on gas chromatography (abbreviated as “GLC” hereinafter) for monosaccharides and disaccharides as acceptors, and on HPLC for trisaccharides as acceptors to confirm whether these saccharides could be used as their saccharide transferring reaction acceptors. In the case of performing GLC, the following apparatuses and conditions are used: GLC apparatus, “GC-16A” commercialized by Shimadzu Corporation, Tokyo, Japan; column, a stainless-steel column, 3 mm in diameter and 2 m in length, packed with 2% “SILICONE OV-17/CHROMOSOLV W”, commercialized by GL Sciences Inc., Tokyo, Japan; carrier gas, nitrogen gas at a flow rate of 40 ml/min under temperature conditions of increasing from 160° C. to 320° C. at an increasing temperature rate of 7.5° C./min; and detection, a hydrogen flame ionization detector.
(§5) In the case of HPLC analysis, the apparatuses and conditions used were: HPLC apparatus, “CCPD” commercialized by Tosoh Corporation, Tokyo, Japan; column, “ODS-AQ-303” commercialized by YMC Co., Ltd., Tokyo, Japan; eluent, water at a flow rate of 0.5 ml/min; and detection, a differential refractometer.

[8] = system: α-isomaltosylglucosaccharide-forming enzyme from Bacillus globisporus C11 strain; test: Specificity of saccharide transferring reaction acceptor, enzyme of Strain C11; type: biochemical; settings: 1.6% acceptor, 4% PINE-DEX #100 as donor, one unit/g donor, 30° C., pH 6.0, 24 hours; GLC or HPLC
Procedure: as §4, §5

SMILES | Relative activity [1] [%] | Relative activity [2] [%] | Relative activity [3] [%] | Relative activity [4] [%] | further results
[Al+3] [Al^3+] | 99 | 103 | 100 | 89 | 
[Ca+2] [Ca^2+] | 115 | 101 | 109 | 91 | Effect on enzyme activity (in words) [1]: activated; Effect on enzyme activity (in words) [2]: not activated; Effect on enzyme activity (in words) [3]: activated; Effect on enzyme activity (in words) [4]: not activated
[Zn+2] [Zn^2+] | 92 | 88 | 91 | 83 | 
[Pb+2] [Pb^2+] | 103 | 89 | 101 | 74 | 
[Mn+2] [Mn^2+] | 111 | 106 | 142 | 93 | Effect on enzyme activity (in words) [1]: activated; Effect on enzyme activity (in words) [3]: activated
[Cu+2] [Cu^2+] | 15 | 57 | 23 | 56 | Effect on enzyme activity (in words) [1]: greatly inhibited; Effect on enzyme activity (in words) [2]: inhibited; Effect on enzyme activity (in words) [3]: greatly inhibited; Effect on enzyme activity (in words) [4]: inhibited
[Hg+2] [Hg^2+] | 4 | 1 | 4 | 2 | Effect on enzyme activity (in words) [1]: greatly inhibited; Effect on enzyme activity (in words) [2]: greatly inhibited; Effect on enzyme activity (in words) [3]: greatly inhibited; Effect on enzyme activity (in words) [4]: greatly inhibited
[Co+2] [Co^2+] | 100 | 103 | 96 | 89 | 
OC[C@H]1O[C@@](CO)(O[C@H]2O[C@H](CO)[C@@H](O)[C@H](O)[C@H]2O)[C@@H](O)[C@@H]1O [Sucrose, sucrose] |  |  |  |  | Enzymatic action, Enzyme of Strain C9 [5]: −; Enzymatic action, Enzyme of Strain C11 [6]: −; Product of saccharide transferring reaction, Enzyme of Strain C9 [7]: ++ (a saccharide-transferred product was detected in an amount of at least ten percent through transferring reaction to acceptor); Product of saccharide transferring reaction, Enzyme of Strain C11 [8]: ++ (a saccharide-transferred product was detected in an amount of at least ten percent through transferring reaction to acceptor)
[Ni+2] [Ni^2+] |  | 102 | 93 | 89 | 
OC[C@H]1O[C@@H](O[C@H]2[C@H](O)[C@@H](O)C(O)O[C@@H]2CO)[C@H](O)[C@@H](O)[C@H]1O (some centres unmarked) [Lactose, lactose] |  |  |  |  | Enzymatic action, Enzyme of Strain C9 [5]: −; Enzymatic action, Enzyme of Strain C11 [6]: −; Product of saccharide transferring reaction, Enzyme of Strain C9 [7]: ++ (a saccharide-transferred product was detected in an amount of at least ten percent through transferring reaction to acceptor); Product of saccharide transferring reaction, Enzyme of Strain C11 [8]: ++ (a saccharide-transferred product was detected in an amount of at least ten percent through transferring reaction to acceptor)
[Mg+2] [Mg^2+] | 100 |  |  | 91 | 
OC[C@@H](O)[C@@H](O[C@H]1O[C@H](CO)[C@@H](O)[C@H](O)[C@H]1O)[C@H](O)[C@@H](O)CO [Maltitol, maltitol] |  |  |  |  | Enzymatic action, Enzyme of Strain C9 [5]: −; Enzymatic action, Enzyme of Strain C11 [6]: −; Product of saccharide transferring reaction, Enzyme of Strain C9 [7]: ++ (a saccharide-transferred product was detected in an amount of at least ten percent through transferring reaction to acceptor); Product of saccharide transferring reaction, Enzyme of Strain C11 [8]: ++ (a saccharide-transferred product was detected in an amount of at least ten percent through transferring reaction to acceptor)
[Fe+2] [Fe^2+] |  | 96 | 100 |  | Relative activity ([2]; listed as Fe^3+): 105%; Relative activity ([3]; listed as Fe^3+): 102%
O=C[C@H](O)[C@@H](O)[C@H](O[C@@H]1O[C@H](CO)[C@@H](O)[C@H](O)[C@H]1O)[C@H](O)CO [Cellobiose, cellobiose] |  |  |  |  | Enzymatic action, Enzyme of Strain C9 [5]: −; Enzymatic action, Enzyme of Strain C11 [6]: −; Product of saccharide transferring reaction, Enzyme of Strain C9 [7]: ++ (a saccharide-transferred product was detected in an amount of at least ten percent through transferring reaction to acceptor); Product of saccharide transferring reaction, Enzyme of Strain C11 [8]: ++ (a saccharide-transferred product was detected in an amount of at least ten percent through transferring reaction to acceptor)
